Experimental data from PubChem BioAssay (NCI).
“And” between values parts separate entries of the source, which are not always exact repeats. Equal values may be shown once.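 Where inhibition never reached the appropriate level, the endpoint shown equals the highest concentration tested. Otherwise, values were interpolated linearly from a five-concentration, 48-hour dose response in 96-well plates. At the GI50, growth is halved. The concentration for full growth arrest is given as TGI.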

What was measured:
Assay in all cases: growth of human tumour cells (NCI), 48 h
[1] = system: 786-0 renal
[2] = system: A498 renal
[3] = system: A549 NSCLC
[4] = system: ACHN renal
[5] = system: BT-549 breast
[6] = system: CAKI-1 renal
[7] = system: CCRF-CEM leukemia
[8] = system: COLO 205 colon
[9] = system: DU-145 prostate
[10] = system: EKVX NSCLC
[11] = system: HCC-2998 colon
[12] = system: HCT-116 colon
[13] = system: HCT-15 colon
[14] = system: HL-60(TB) leukemia
[15] = system: HOP-62 NSCLC
[16] = system: HOP-92 NSCLC
[17] = system: HS 578T breast
[18] = system: HT29 colon
[19] = system: IGROV1 ovarian
[20] = system: K-562 leukemia
[21] = system: KM12 colon
[22] = system: LOX IMVI melanoma
[23] = system: M14 melanoma
[24] = system: MALME-3M melanoma
[25] = system: MCF7 breast
[26] = system: MDA-MB-231 breast
[27] = system: MDA-MB-435
[28] = system: MOLT-4 leukemia
[29] = system: NCI-H226 lung
[30] = system: NCI-H23 lung
[31] = system: NCI-H460 lung
[32] = system: NCI-H522 lung
[33] = system: NCI/ADR-RES ovarian
[34] = system: OVCAR-3 ovarian
[35] = system: OVCAR-4 ovarian
[36] = system: OVCAR-5 ovarian
[37] = system: OVCAR-8 ovarian
[38] = system: PC-3 prostate
[39] = system: RPMI-8226 leukemia
[40] = system: RXF 393 renal
[41] = system: SF-268 CNS
[42] = system: SF-295 CNS
[43] = system: SF-539 CNS
[44] = system: SK-MEL-2 melanoma
[45] = system: SK-MEL-28 melanoma
[46] = system: SK-MEL-5 melanoma
[47] = system: SK-OV-3 ovarian
[48] = system: SN12C renal
[49] = system: SNB-19 CNS
[50] = system: SNB-75 CNS
[51] = system: SR leukemia
[52] = system: SW-620 colon
[53] = system: T-47D breast
[54] = system: TK-10 renal
[55] = system: U251 CNS
[56] = system: UACC-257 melanoma
[57] = system: UACC-62 melanoma
[58] = system: UO-31 renal

Q: With `NC1(c2ccc(-c3nc4ccn5c(=O)[nH]nc5c4cc3-c3ccccc3)cc2)CCC1` as the compound, how does the GI50 [1] read?
A: 0.816 µM and 0.697 µM and 1.15 µM

Q: And the TGI [1]?
A: 11.9 µM and > 9.66 µM and 14.7 µM

Q: And the GI50 [2]?
A: 0.0411 µM and 0.0426 µM and 0.112 µM

Q: What about the TGI [2] of the same compound?
A: 0.432 µM and 0.319 µM and 0.865 µM

Q: And the GI50 [3]?
A: 4.33 µM and 6.07 µM and 7.9 µM

Q: What about the TGI [3] of the same compound?
A: 20.5 µM and > 10 µM and 23.6 µM

Q: What about the GI50 [4] of the same compound?
A: 3.05 µM and > 10 µM and 10.5 µM

Q: What about the TGI [4] of the same compound?
A: 14.9 µM and > 10 µM and 22.4 µM

Q: And the GI50 [5]?
A: 0.462 µM and 0.621 µM and 1.57 µM

Q: And the TGI [5]?
A: 13.6 µM and > 10 µM and 16 µM

Q: What about the GI50 [6] of the same compound?
A: 5.01 µM and > 2.69 µM and 4.86 µM

Q: What about the TGI [6] of the same compound?
A: 20 µM and > 10 µM and 20.7 µM

Q: What about the GI50 [7] of the same compound?
A: 0.362 µM and 0.488 µM and 0.402 µM

Q: What about the TGI [7] of the same compound?
A: 15.6 µM and > 10 µM and 13.7 µM

Q: And the GI50 [8]?
A: 0.461 µM and 0.651 µM and 1.81 µM

Q: What about the TGI [8] of the same compound?
A: 12.4 µM and > 10 µM and 18.4 µM

Q: What about the GI50 [9] of the same compound?
A: 13.6 µM and > 10 µM and 13.3 µM

Q: What about the TGI [9] of the same compound?
A: 26.7 µM and > 10 µM and 26.4 µM

Q: And the GI50 [10]?
A: 3.65 µM and > 10 µM and 1.41 µM

Q: And the TGI [10]?
A: 22.8 µM and > 10 µM and 18.5 µM

Q: What about the GI50 [11] of the same compound?
A: 3.35 µM and > 6.01 µM and 3.61 µM

Q: And the TGI [11]?
A: 18.6 µM and > 10 µM and 19.7 µM

Q: And the GI50 [12]?
A: 5.49 µM and > 6.86 µM and 11.3 µM

Q: What about the TGI [12] of the same compound?
A: 19.3 µM and > 10 µM and 27.8 µM

Q: What about the GI50 [13] of the same compound?
A: 2.92 µM and > 6.16 µM and 10.4 µM

Q: What about the TGI [13] of the same compound?
A: 17.5 µM and > 10 µM and 23.9 µM

Q: And the GI50 [14]?
A: 9.79 µM and > 7.36 µM and 12.3 µM

Q: And the TGI [14]?
A: 27.2 µM and > 10 µM and 28.8 µM

Q: What about the GI50 [15] of the same compound?
A: 3.84 µM and > 10 µM and 10.7 µM

Q: What about the TGI [15] of the same compound?
A: 15.9 µM and > 10 µM and 26.2 µM

Q: What about the GI50 [16] of the same compound?
A: 0.035 µM and 0.113 µM and 0.163 µM

Q: And the TGI [16]?
A: 3.5 µM and > 2.63 µM and 5.61 µM

Q: What about the GI50 [17] of the same compound?
A: 0.171 µM and 0.184 µM and 0.28 µM

Q: What about the TGI [17] of the same compound?
A: 7.4 µM and > 2.73 µM and 4.3 µM

Q: What about the GI50 [18] of the same compound?
A: 1.5 µM and 2.34 µM and 3.02 µM

Q: What about the TGI [18] of the same compound?
A: 9.7 µM and > 10 µM and 24.6 µM

Q: And the GI50 [19]?
A: 0.0878 µM and 0.198 µM and 0.407 µM

Q: What about the TGI [19] of the same compound?
A: 13.6 µM and > 10 µM and 9.33 µM

Q: What about the GI50 [20] of the same compound?
A: 5.43 µM and > 5.59 µM and 9.99 µM

Q: And the TGI [20]?
A: 18.2 µM and > 10 µM and 29.1 µM

Q: And the GI50 [21]?
A: 6.86 µM and > 8.08 µM and 12.2 µM

Q: What about the TGI [21] of the same compound?
A: 20.8 µM and > 10 µM and 25.8 µM

Q: And the GI50 [22]?
A: 4.94 µM and > 6.27 µM and 11.8 µM

Q: And the TGI [22]?
A: 16.5 µM and > 10 µM and 24.6 µM

Q: What about the GI50 [23] of the same compound?
A: 4.69 µM and > 10 µM and 13.1 µM

Q: What about the TGI [23] of the same compound?
A: 9.71 µM and > 10 µM and 28.7 µM

Q: What about the TGI [24] of the same compound?
A: 3 µM and > 10 µM and 24.3 µM

Q: What about the TGI [25] of the same compound?
A: 6.37 µM and > 10 µM and 17.5 µM

Q: What about the GI50 [26] of the same compound?
A: 10.7 µM and > 10 µM and 13.5 µM

Q: And the TGI [26]?
A: 23.8 µM and > 10 µM and 26.7 µM

Q: And the GI50 [27]?
A: 5.47 µM and > 10 µM and 10.8 µM

Q: What about the TGI [27] of the same compound?
A: 21.8 µM and > 10 µM and 23 µM

Q: What about the GI50 [28] of the same compound?
A: 0.353 µM and 0.531 µM and 0.313 µM

Q: What about the TGI [28] of the same compound?
A: 14.1 µM and > 10 µM and 10.9 µM

Q: And the GI50 [29]?
A: 12.2 µM and > 10 µM and 11.6 µM

Q: What about the TGI [29] of the same compound?
A: 25.9 µM and > 10 µM and 26.4 µM

Q: And the GI50 [30]?
A: 13.1 µM and > 10 µM and 13.2 µM

Q: And the TGI [30]?
A: 28.3 µM and > 10 µM and 27.2 µM

Q: What about the GI50 [31] of the same compound?
A: 0.231 µM and 0.679 µM and 1.19 µM

Q: What about the TGI [31] of the same compound?
A: 17.7 µM and > 10 µM and 18.5 µM

Q: And the GI50 [32]?
A: 7.95 µM and > 10 µM and 11.6 µM

Q: And the TGI [32]?
A: 23.2 µM and > 10 µM and 26 µM

Q: And the GI50 [33]?
A: 11.9 µM and > 10 µM and 12.8 µM

Q: And the TGI [33]?
A: 26.2 µM and > 10 µM and 26.9 µM

Q: What about the GI50 [34] of the same compound?
A: 0.607 µM and 0.841 µM and 0.814 µM

Q: And the TGI [34]?
A: 18.9 µM and > 10 µM and 18.5 µM

Q: And the GI50 [35]?
A: 5.57 µM and > 10 µM and 14.7 µM

Q: What about the TGI [35] of the same compound?
A: 14 µM and > 10 µM and 30.5 µM

Q: And the GI50 [36]?
A: 11.6 µM and > 10 µM and 12.6 µM

Q: And the TGI [36]?
A: 24.7 µM and > 10 µM and 25.7 µM

Q: What about the GI50 [37] of the same compound?
A: 12.6 µM and > 10 µM and 14.9 µM

Q: And the TGI [37]?
A: 28.2 µM and > 10 µM and 30.8 µM

Q: And the GI50 [38]?
A: 0.0523 µM and 0.135 µM and 0.141 µM

Q: And the TGI [38]?
A: 17 µM and > 10 µM and 17.3 µM

Q: What about the GI50 [39] of the same compound?
A: 7 µM and > 8.21 µM and 6.27 µM

Q: What about the TGI [39] of the same compound?
A: 23.2 µM and > 10 µM and 28.4 µM

Q: What about the GI50 [40] of the same compound?
A: 0.0971 µM and 0.417 µM and 0.129 µM

Q: And the TGI [40]?
A: 1.37 µM and 5.66 µM and 1.11 µM

Q: What about the GI50 [41] of the same compound?
A: 12.2 µM and > 10 µM and 12.3 µM

Q: And the TGI [41]?
A: 26.4 µM and > 10 µM and 27 µM

Q: And the GI50 [42]?
A: 0.267 µM and 0.698 µM and 0.611 µM

Q: And the TGI [42]?
A: 5.22 µM and > 10 µM and 13.9 µM

Q: What about the GI50 [43] of the same compound?
A: 0.197 µM and 1.71 µM and 1.63 µM

Q: What about the TGI [43] of the same compound?
A: 5.77 µM and > 10 µM and 14 µM

Q: And the GI50 [44]?
A: 14.9 µM and > 10 µM and 15.7 µM

Q: And the TGI [44]?
A: 30.2 µM and > 10 µM and 31.4 µM

Q: And the GI50 [45]?
A: 1.27 µM and > 10 µM and 7.49 µM

Q: What about the TGI [45] of the same compound?
A: 5.37 µM and > 10 µM and 21.6 µM

Q: What about the GI50 [46] of the same compound?
A: 2.09 µM and > 10 µM and 11.1 µM

Q: And the TGI [46]?
A: 5.79 µM and > 10 µM and 23.2 µM

Q: And the GI50 [47]?
A: 0.212 µM and 0.191 µM and 0.449 µM

Q: And the TGI [47]?
A: 15.1 µM and > 5.49 µM and 14.9 µM

Q: And the GI50 [48]?
A: 6.95 µM and > 10 µM and 10.6 µM

Q: And the TGI [48]?
A: 21.7 µM and > 10 µM and 22.7 µM

Q: What about the GI50 [49] of the same compound?
A: 2.64 µM and 3.84 µM and 5.83 µM

Q: And the TGI [49]?
A: 15.6 µM and > 10 µM and 20.2 µM

Q: And the GI50 [50]?
A: 0.051 µM and 0.105 µM and 0.12 µM

Q: And the TGI [50]?
A: 3.35 µM and 2.62 µM and 4.53 µM

Q: What about the GI50 [51] of the same compound?
A: 7.28 µM and > 4.45 µM and 8.51 µM

Q: And the TGI [51]?
A: 19.6 µM and 9.81 µM and 33.2 µM

Q: And the GI50 [52]?
A: 14.2 µM and > 10 µM and 15 µM

Q: And the TGI [52]?
A: 28.7 µM and > 10 µM and 29.8 µM

Q: What about the GI50 [53] of the same compound?
A: 0.0198 µM and 0.0234 µM and 0.0639 µM

Q: What about the GI50 [54] of the same compound?
A: 0.506 µM and 0.477 µM and 0.908 µM

Q: What about the TGI [54] of the same compound?
A: 21.2 µM and > 10 µM and 18.4 µM

Q: And the GI50 [55]?
A: 2.34 µM and 2.68 µM and 3.65 µM

Q: And the TGI [55]?
A: 14.7 µM and > 10 µM and 20 µM

Q: And the GI50 [56]?
A: 1.54 µM and > 10 µM and 12.7 µM

Q: And the TGI [56]?
A: 5.42 µM and > 10 µM and 26.8 µM

Q: And the GI50 [57]?
A: 0.255 µM and 0.804 µM and 0.811 µM

Q: What about the TGI [57] of the same compound?
A: 15.3 µM and > 10 µM and 18 µM

Q: What about the GI50 [58] of the same compound?
A: 0.765 µM and 0.344 µM and 1.08 µM

Q: What about the TGI [58] of the same compound?
A: 18.3 µM and > 10 µM and 3.06 µM
